Results as given in publication PMC3144732, “Rho-Rho kinase pathway in the actomyosin contraction and cell-matrix adhesion in immortalized human trabecular meshwork cells” (Molecular Vision, 2011).
Entries after “also recorded” stand apart in the source; their conditions may differ. Values belong to the molecule of their own block, whether it stands above or below them.

Key:
[1] = test system: MYPT1 phosphorylation at Thr853; assay: Western blot of MYPT1 phosphorylation at Thr853 in GTM3 cells; format: cell-based, human; details: 1 h, serum-rich medium; for effect on MYPT1 phosphorylation at Thr853: 5 μM; for IC50: GTM3 cells, densitometry of western blot, read-out: IC50 for dephosphorylation of MYPT1 at Thr853
Protocol: (§1) Cell cultures of an immortalized human glaucomatous trabecular meshwork (GTM3) cell line were grown at 37 °C in 5% CO2 in Dulbecco’s Minimum Essential Medium (DMEM + Glutamax) supplemented with 10% fetal bovine serum and 10 μg/ml of gentamicin (Invitrogen, Grand Island, NY) as previously described. Upon reaching confluence, cells were divided using 0.05% trypsin. Cells of passages 13 to 20 were used in our experiments.
(§2) Following treatment with the desired drugs/agents, cells were rinsed in PBS and solubilized in 300 µl of 2× Laemmli sample buffer. The lysate was sonicated briefly and boiled for 5 min. Equal amounts of protein (30 μg) were loaded in 8% or 12% SDS–PAGE gels. Following electrophoresis, proteins were transferred to a nitrocellulose membrane (Biorad, Hercules, CA), blocked with 5% fat-free milk for 1 h, and incubated with specific phospho-MYPT1 or phospho-MLC antibodies overnight. The membranes were next incubated with the appropriate secondary antibodies for 1 h. The blots were finally washed and developed using an enhanced chemiluminescence kit (Pierce, Rockford, IL) according to the manufacturer’s instructions.
(§3) A one-way ANOVA was used to compare mean values for different treatments with Bonferroni’s post-test analysis (Prism 5.0 for Windows; GraphPad Software, Inc., San Diego, CA). Results are expressed as mean±SEM. For analysis of ECIS (electrical cell-substrate impedance sensing) data, normalized numerical values from individual experiments were pooled and expressed as mean±SEM. A p value of less than 0.05 was considered statistically significant. “n” denotes the number of independent experiments performed. […] The calculations assume that log [drug] versus response follow a sigmoidal shape and were performed with Prism 5.0. The reported values of R indicate goodness of fit.

[2] = test system: MYPT1 phosphorylation at Thr696; assay: Western blot of MYPT1 phosphorylation at Thr696 in GTM3 cells; format: cell-based, human; details: 1 h, serum-rich medium; for IC50: GTM3 cells, densitometry of western blot, read-out: IC50 for dephosphorylation of MYPT1 at Thr696
Protocol: as §1, §2, §3

MLC phosphorylation = assay: Western blot of MLC phosphorylation (ppMLC) in GTM3 cells; format: cell-based, human; details: 1 h, serum-rich medium, densitometry of western blot, read-out: IC50 for dephosphorylation of MLC
Protocol: as §1
as §2, with “The blots were finally washed and developed using an enhanced chemiluminescence kit (Pierce, Rockford, IL) according to the manufacturer’s instructions.” left out
A one-way ANOVA was used to compare mean values for different treatments with Bonferroni’s post-test analysis (Prism 5.0 for Windows; GraphPad Software, Inc., San Diego, CA). Results are expressed as mean±SEM. For analysis of ECIS (electrical cell-substrate impedance sensing) data, normalized numerical values from individual experiments were pooled and expressed as mean±SEM. […]

[3] = test system: GTM3 cells (actomyosin contraction); assay: Collagen gel contraction assay with GTM3 cells; format: cell-based, human; details: for increase in the gel area (relaxation) compared with the control: 10 μM
Protocol: A collagen gel contraction assay was performed as previously described. The wells of 24-well culture plates were coated with 1% BSA at 37 °C for 1 h. Glaucomatous trabecular meshwork cells were trypsinized and resuspended in culture medium at a density of 1×10^7 cells/ml. Rat-tail collagen Type I (BD Biosciences, San Jose, CA), 10× DMEM (Sigma, St. Louis, MO), reconstitution buffer (pH 7.3), TM cell suspension, and distilled water were mixed on ice to obtain a final concentration of 1.9 mg/ml of collagen and a final cell density of 2×10^5 cells/ml. The resultant mixture (0.5 ml) was added to each well of the BSA-coated culture clusters, and collagen gel formation was induced by incubation at 37 °C for 90 min. Serum-rich or serum-free DMEM (0.5 ml), without or with the drugs, was then added on top of the gels. After 1 h, the gels were freed from the walls of the culture wells. They were subsequently imaged every 24 h for 2 days. The area was calculated using NIH ImageJ software.

[4] = test system: GTM3 cells (cell-matrix adhesion); assay: Electrical cell-substrate impedance sensing (ECIS), cell-matrix adhesion; format: cell-based, human
Protocol: Cells were seeded on gold electrode-plated culture plates (8W10E+) and placed in an incubator at 37 °C with humidified air and 5% CO2. The attachment and spreading of the cells on electrodes was monitored continuously at 4 kHz until the observed electrical resistance reached a plateau and stabilized. This usually occurred within 20–24 h after inoculation. Impedance to current flow was measured at different frequencies (25 Hz to 60 kHz) periodically before and after inoculation. After reaching the steady-state of electric-cell substrate resistance, cells were exposed to the ROCK inhibitors, and the impedance was assessed at different frequencies every 30 min. The change in the measured resistance normalized to that of the bare electrode was taken as a measure of cell-matrix adhesion as discussed further below.
ECIS involves the measurement of impedance to a small AC current applied across cells grown to confluence on planar gold microelectrodes. The measurement is non-invasive, and off-the-shelf instruments such as ECIS^TM 1600R (Applied Biophysics, Inc., Troy, NY) make use of a lock-in amplifier to measure small changes in electrical impedance at a high-temporal resolution. We have previously employed ECIS to assess the integrity of the apical junctional complex of the corneal endothelial monolayers. For epithelial monolayers, such as the corneal endothelium, the resistive component of the measured impedance implies trans-endothelial electrical resistance for current flow between the cells when confluent on the electrode. However, with non-epithelial cells, such as fibroblasts, measured impedance arises mainly out of resistance to current flow across the cell substrate (i.e., cell-matrix adhesion). In this study, we examined the dynamics of such cell-matrix resistance (i.e., resistive component of the measured impedance) with TM cells. […] This increase can be attributed to the attachment of cells to the substrate (gold electrode), which leads to an increased resistance to current flow. […]

GTM3 cells = assay: Cell morphology (DIC), stress fibers and focal adhesions (F-actin, paxillin staining); format: cell-based, human; details: 1 h, serum-rich medium
Protocol: Cells were first treated for the indicated time period in the serum-rich medium described earlier. Following a brief rinse with PBS, cells were fixed with 4% paraformaldehyde for 10 min and then permeabilized with 0.1% Triton-X for 10 min. For phosphorylated MLC staining, cells were blocked with 10% goat serum + 3% BSA, and, for vinculin and paxillin staining, the cells were blocked with 10% FBS for 1 h. Cells were incubated in primary antibody overnight, followed by secondary antibody incubation for 1 h. Double staining for actin was performed by incubating cells in Texas-red conjugated phalloidin for 20 min. After extensive washing, coverslips were mounted using ProLong AntiFade (Molecular Probes, Eugene, OR). Images were acquired using a Leica SP5 (Leica Microsystems, Bannockburn, IL) confocal microscope. After similar treatments, DIC images of cells fixed on coverslips were also obtained using a Nikon E800 (Nikon Instruments, Melville, NY) microscope.

normal HTM cells = details: 10 μM; cited from earlier work
[5] = test system: FAK (Tyr397) phosphorylation; assay: Serum-induced tyrosine phosphorylation of FAK (Tyr397), western blot; format: cell-based, human; details: 1 μM pretreatment, 10% serum added to serum-starved cells
[6] = test system: paxillin (Tyr118) phosphorylation; assay: Serum-induced tyrosine phosphorylation of paxillin (Tyr118), western blot; format: cell-based, human; details: 1 μM pretreatment, 10% serum added to serum-starved cells
[7] = rabbits; cited from earlier work

IC50 [1]: 658 nM
IC50 [2]: 2270 nM
IC50 (MLC phosphorylation): 1060 nM
SMILES: C[C@@H](N)[C@H]1CC[C@H](C(=O)Nc2ccncc2)CC1 [Y-27632]
effect on MYPT1 phosphorylation at Thr853 [1]: complete dephosphorylation
effect on MYPT1 phosphorylation at Thr696 ([2]; 5 μM): comparatively smaller reduction; also recorded: only slightly reduced; also recorded: only a marginal decrease
increase in the gel area (relaxation) compared with the control ([3]; 48 h, 10% serum): 50%
change in electrical cell-substrate resistance ([4]; 5 μM, up to 2 h): significant decrease in the peak resistance
change in cell shape (DIC images) (GTM3 cells; 5 μM): apparent shrinkage, with cells assuming a stellate appearance
effect on stress fibers and focal adhesions (GTM3 cells; 5 μM): complete loss of stress fibers and focal adhesions
gel contraction allowed (normal HTM cells): 30%

IC50 [1]: 15 nM
IC50 [2]: 177 nM
IC50 (MLC phosphorylation): 14 nM
SMILES: C[C@@H](N)c1ccc(C(=O)Nc2ccnc3[nH]ccc23)cc1 [Y-39983]
effect on MYPT1 phosphorylation at Thr853 [1]: complete dephosphorylation
increase in the gel area compared with the control ([3]; 1 μM, 48 h, 10% serum): 86±5%
decrease in the contraction of the collagen gels ([3]; 5 μM): 100%
change in electrical cell-substrate resistance ([4]; 1 μM, up to 2 h): significant decrease in resistance; also recorded: rapid and more pronounced
change in cell shape (DIC images) (GTM3 cells; 1 μM): apparent shrinkage, with cells assuming a stellate appearance
effect on stress fibers and focal adhesions (GTM3 cells; 1 μM): complete loss of stress fibers and focal adhesions
effect on stress fibers and focal adhesions (GTM3 cells; 5 μM): loss of stress fibers
effect on serum-induced tyrosine phosphorylation of FAK at Tyr397 [5]: opposed
effect on serum-induced phosphorylation of paxillin at Tyr118 [6]: opposed
decrease in IOP compared to Y-27632 [7]: 10 fold

SMILES: Cc1ccc2c(c1)C(=O)C1(O)CCN(c3ccccc3)C1=N2 (stereo not shown) [blebbistatin]
increase in the gel area (relaxation) compared with the control ([3]; 48 h, 10% serum): 102±1.3%

SMILES: C=C1[C@@H](C)[C@H]2[C@H](Cc3ccccc3)NC(=O)[C@]23[C@H](OC(C)=O)/C=C/[C@@](C)(O)C(=O)[C@@H](C)C/C=C/[C@H]3[C@@H]1O [cytochalasin D]
change in electrical cell-substrate resistance ([4]; 0.125 mg/ml): significant decrease in the measured resistance; also recorded: substantial decrease in the resistance
